The subject of experiment [1] is HCV genotype 1b (Con1) replicon in HUH-7 cells. Kind of experiment: HCV replicon luciferase reporter assay, genotype 1b. Conditions: Hepatitis C virus, Huh-7, 72 h, HCV genotype 1b replicon luciferase, 3 days incubation. The class given is cell-based. The method, boiled down: (§1)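 Replicon inhibition for both genotypes was measured as Renilla luciferase signal (EnduRen, 7.5 μM final, 2 h) after 3-day, 37° C exposure of replicon-bearing HUH-7 cells in 4% FCS DMEM, 0.5% DMSO. The 1b construct carries S1179I; the 1a H77 construct carries P1496L and S2204I. Twenty-point, 3-fold dilutions were fitted four-parametrically for EC50, and CC50 was taken from multiplexed Cell Titer-Blue.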

Experiment [2] relates to HCV genotype 1a (H77 strain) replicon in HUH-7 cells. Description: HCV replicon luciferase reporter assay, genotype 1a. The class given is cell-based. Conditions: Hepatitis C virus, Huh-7, 72 h, HCV genotype 1a replicon luciferase, 3 days incubation. The method, boiled down: as §1
[3] abbreviates: GETYPE1B, read-out: LE_1b (EC50, range).
[4] abbreviates: GETYPE1A, read-out: LE_1a (EC50, range).
Setting [5] is: GETYPE1B, read-out: LE_1b (EC50).
The mark [6] stands for this setting: GETYPE1A, read-out: LE_1a (EC50).

Molecules are shown by their SMILES. Like-named read-outs stand apart in the source and are kept apart here.

By EC50 is commonly meant the concentration at which the effect is half-maximal. As to `CC[C@@H]1C[C@H](C)CC/C=C\[C@@H]2C[C@@]2(C(=O)NS(=O)(=O)C2CC2)NC(=O)[C@@H]2C[C@@H](Oc3nc4c(c5cc(OC)c(F)cc35)CCCO4)CN2C(=O)[C@H]1NC(=O)OC(C)(C)C(F)(F)F` [Compound 1195], the concentration giving a half-maximal response (EC50) in experiment [1] (setting [3]) and in experiment [2] (setting [4]) was 1.01 to 5 nM in each case.
On to `COc1cc2c3c(nc(O[C@@H]4C[C@H]5C(=O)N[C@]6(C(=O)NS(=O)(=O)C7(C)CC7)C[C@H]6/C=C\CC[C@@H](C)C[C@@H](C)[C@H](NC(=O)OC(C)(C)C(F)(F)F)C(=O)N5C4)c2cc1F)OCCC3` [Compound 1196], for which the EC50 in experiment [1] (setting [3]) and in experiment [2] (setting [4]) was 0.51 to 1 nM throughout.
Regarding `CC[C@@H]1C[C@H](C)CC/C=C\[C@@H]2C[C@@]2(C(=O)NS(=O)(=O)C2(C)CC2)NC(=O)[C@@H]2C[C@@H](Oc3nc4c(c5cc(OC)c(F)cc35)CCCO4)CN2C(=O)[C@H]1NC(=O)OC(C)(C)C(F)(F)F` [Compound 1197], the EC50 in experiment [1] (setting [3]) fell in the range of 0.51 to 1 nM; in experiment [2] (setting [4]), 1.01 to 5 nM.
Consider `CC[C@@H]1C[C@H](C)CC/C=C\[C@@H]2C[C@@]2(C(=O)NS(=O)(=O)C2(C)CC2)NC(=O)[C@@H]2C[C@@H](Oc3nc4c(c5cc(OC)c(F)cc35)CCCO4)CN2C(=O)[C@H]1NC(=O)OC(C)(C)C(C)(F)F` [Compound 1198], for which the EC50 was 0.9 nM in experiment [1] (setting [5]), 0.51 to 1 nM in experiment [1] (setting [3]), 0.5 nM in experiment [2] (setting [6]) and 0.1 to 0.5 nM in experiment [2] (setting [4]).
As to `CC[C@@H]1C[C@H](C)CC/C=C\[C@@H]2C[C@@]2(C(=O)NS(=O)(=O)C2(C)CC2)NC(=O)[C@@H]2C[C@@H](Oc3cc(OC)nc4cc(OC)c(F)cc34)CN2C(=O)[C@H]1NC(=O)OC(C)(C)C(F)(F)F` [Compound 1199], the EC50 in experiment [1] (setting [3]) and in experiment [2] (setting [4]) was 1.01 to 5 nM in each case.
With `CC[C@@H]1C[C@H](C)CC/C=C\[C@@H]2C[C@@]2(C(=O)NS(=O)(=O)C2(C)CC2)NC(=O)[C@@H]2C[C@@H](Oc3cc(OC)nc4cc(OC)c(F)cc34)CN2C(=O)[C@H]1NC(=O)OC(C)(C)C(C)(F)F` [Compound 1200], the EC50 in experiment [1] (setting [3]) and in experiment [2] (setting [4]) was 1.01 to 5 nM throughout.
As to `CC[C@@H]1C[C@H](C)CC/C=C\[C@@H]2C[C@@]2(C(=O)NS(=O)(=O)C2CC2)NC(=O)[C@@H]2C[C@@H](Oc3cc(OC)nc4cc(OC)c(F)cc34)CN2C(=O)[C@H]1NC(=O)OC(C)(C)C(F)(F)F` [Compound 1201], the EC50 in experiment [1] (setting [3]) and in experiment [2] (setting [4]) was 1.01 to 5 nM in each case.
For `CC[C@@H]1C[C@H](C)CC/C=C\[C@@H]2C[C@@]2(C(=O)NS(=O)(=O)C2CC2)NC(=O)[C@@H]2C[C@@H](Oc3cc(OC)nc4cc(OC)c(F)cc34)CN2C(=O)[C@H]1NC(=O)OC(C)(C)C(C)(F)F` [Compound 1202], the EC50 lay in the range of 0.51 to 1 nM in experiment [1] (setting [3]) and 1.01 to 5 nM in experiment [2] (setting [4]).
The corresponding values for `COc1cc(O[C@@H]2C[C@H]3C(=O)N[C@]4(C(=O)NS(=O)(=O)C5(C)CC5)C[C@H]4/C=C\CC[C@@H](C)C[C@@H](C)[C@H](NC(=O)OC(C)(C)C(F)(F)F)C(=O)N3C2)c2cc(F)c(OC)cc2n1` [Compound 1203] are 0.1 to 0.5 nM and 1.01 to 5 nM.
The corresponding values for `COc1cc(O[C@@H]2C[C@H]3C(=O)N[C@]4(C(=O)NS(=O)(=O)C5(C)CC5)C[C@H]4/C=C\CC[C@@H](C)C[C@@H](C)[C@H](NC(=O)OC(C)(C)C(C)(F)F)C(=O)N3C2)c2cc(F)c(OC)cc2n1` [Compound 1204] are 0.51 to 1 nM and 1.01 to 5 nM.
Take `COc1ccc2c(O[C@@H]3C[C@H]4C(=O)N[C@]5(C(=O)NS(=O)(=O)C6CC6)C[C@H]5/C=C\CC[C@@H](C)C[C@@H](C)[C@H](NC(=O)OC(C)(C)C)C(=O)N4C3)nccc2c1` [Compound 1205, tert-butyl ((2R,6S,7R,9R,13aS,14aR,16aS,Z)-14a-((cyclopropylsulfonyl)carbamoyl)-2-((6-methoxyisoquinolin-1-yl)oxy)-7,9-dimethyl-5,16-dioxo-1,2,3,5,6,7,8,9,10,11,13a,14,14a,15,16,16a-hexadecahydrocyclopropa[e]pyrrolo[1,2-a][1,4]diazacyclopentadecin-6-yl)carbamate]: the EC50 was 0.75 nM in experiment [1] (read-out: LE_1b (EC50)); 0.51 to 1 nM in experiment [1] (read-out: LE_1b (EC50, range)); 0.62 nM in experiment [2] (read-out: LE_1a (EC50)); 0.51 to 1 nM in experiment [2] (read-out: LE_1a (EC50, range)).
Turning to `COc1ccc2c(O[C@@H]3C[C@H]4C(=O)N[C@]5(C(=O)NS(=O)(=O)C6CC6)C[C@H]5/C=C\CC[C@H](C)C[C@@H](C)[C@H](NC(=O)OC(C)(C)C)C(=O)N4C3)nccc2c1` [Compound 1206, tert-butyl ((2R,6S,7R,9S,13aS,14aR,16aS,Z)-14a-((cyclopropylsulfonyl)carbamoyl)-2-((6-methoxyisoquinolin-1-yl)oxy)-7,9-dimethyl-5,16-dioxo-1,2,3,5,6,7,8,9,10,11,13a,14,14a,15,16,16a-hexadecahydrocyclopropa[e]pyrrolo[1,2-a][1,4]diazacyclopentadecin-6-yl)carbamate], the EC50 in experiment [1] (read-out: LE_1b (EC50, range)) was in the range of 1.01 to 5 nM; in experiment [2] (read-out: LE_1a (EC50, range)) it was 1.01 to 5 nM.
Take `COc1cnc(O[C@@H]2C[C@H]3C(=O)N[C@]4(C(=O)NS(=O)(=O)C5CC5)C[C@H]4/C=C\CC[C@@H](C)C[C@@H](C)[C@H](NC(=O)OC(C)(C)C)C(=O)N3C2)c2cc(Cl)ccc12` [Compound 1207, tert-butyl ((2R,6S,7R,9R,13aS,14aR,16aS,Z)-2-((7-chloro-4-methoxyisoquinolin-1-yl)oxy)-14a-((cyclopropylsulfonyl)carbamoyl)-7,9-dimethyl-5,16-dioxo-1,2,3,5,6,7,8,9,10,11,13a,14,14a,15,16,16a-hexadecahydrocyclopropa[e]pyrrolo[1,2-a][1,4]diazacyclopentadecin-6-yl)carbamate]: the EC50 in experiment [1] (read-out: LE_1b (EC50, range)) fell in the range of 0.51 to 1 nM; in experiment [2] (read-out: LE_1a (EC50, range)) it was 1.01 to 5 nM.
The corresponding values for `COc1cnc(O[C@@H]2C[C@H]3C(=O)N[C@]4(C(=O)NS(=O)(=O)C5CC5)C[C@H]4/C=C\CC[C@H](C)C[C@@H](C)[C@H](NC(=O)OC(C)(C)C)C(=O)N3C2)c2cc(Cl)ccc12` [Compound 1208, tert-butyl ((2R,6S,7R,9S,13aS,14aR,16aS,Z)-2-((7-chloro-4-methoxyisoquinolin-1-yl)oxy)-14a-((cyclopropylsulfonyl)carbamoyl)-7,9-dimethyl-5,16-dioxo-1,2,3,5,6,7,8,9,10,11,13a,14,14a,15,16,16a-hexadecahydrocyclopropa[e]pyrrolo[1,2-a][1,4]diazacyclopentadecin-6-yl)carbamate] are 1.01 to 5 nM and 5.01 to 35 nM.
In the case of `CC[C@@H]1C[C@H](C)CC/C=C\[C@@H]2C[C@@]2(C(=O)NS(=O)(=O)C2(C)CC2)NC(=O)[C@@H]2C[C@@H](Oc3cc(OC)nc4cc(OC)ccc34)CN2C(=O)[C@H]1NC(=O)OC(C)(C)C(F)(F)F` [Compound 1209], the EC50 was 2 nM in experiment [1] (setting [5]), 1.01 to 5 nM in experiment [1] (setting [3]), 5.66 nM in experiment [2] (setting [6]) and 5.01 to 35 nM in experiment [2] (setting [4]).
With `CC[C@@H]1C[C@H](C)CC/C=C\[C@@H]2C[C@@]2(C(=O)NS(=O)(=O)C2(C)CC2)NC(=O)[C@@H]2C[C@@H](Oc3cc(OC)nc4cc(OC)ccc34)CN2C(=O)[C@H]1NC(=O)OC(C)(C)C(C)(F)F` [Compound 1210], the EC50 in experiment [1] (setting [3]) fell in the range of 0.51 to 1 nM; in experiment [2] (setting [4]), 1.01 to 5 nM.
On the same counts, the results for `CC[C@@H]1C[C@H](C)CC/C=C\[C@@H]2C[C@@]2(C(=O)NS(=O)(=O)C2CC2)NC(=O)[C@@H]2C[C@@H](Oc3cc(OC)nc4cc(OC)ccc34)CN2C(=O)[C@H]1NC(=O)OC(C)(C)C(F)(F)F` [Compound 1211] are 0.51 to 1 nM and 1.01 to 5 nM.
Regarding `CC[C@@H]1C[C@H](C)CC/C=C\[C@@H]2C[C@@]2(C(=O)NS(=O)(=O)C2CC2)NC(=O)[C@@H]2C[C@@H](Oc3cc(OC)nc4cc(OC)ccc34)CN2C(=O)[C@H]1NC(=O)OC(C)(C)C(C)(F)F` [Compound 1212], the results for the EC50 in experiment [1] (setting [3]) and in experiment [2] (setting [4]) were 0.1 to 0.5 nM and 1.01 to 5 nM, respectively.
As for `COc1ccc2c(O[C@@H]3C[C@H]4C(=O)N[C@]5(C(=O)NS(=O)(=O)C6(C)CC6)C[C@H]5/C=C\CC[C@@H](C)C[C@@H](C)[C@H](NC(=O)OC(C)(C)C(F)(F)F)C(=O)N4C3)cc(OC)nc2c1` [Compound 1213], the figures for the EC50 in experiment [1] (setting [3]) and in experiment [2] (setting [4]) were 0.51 to 1 nM and 1.01 to 5 nM, respectively.
On the same counts, the results for `COc1ccc2c(O[C@@H]3C[C@H]4C(=O)N[C@]5(C(=O)NS(=O)(=O)C6(C)CC6)C[C@H]5/C=C\CC[C@@H](C)C[C@@H](C)[C@H](NC(=O)OC(C)(C)C(C)(F)F)C(=O)N4C3)cc(OC)nc2c1` [Compound 1214] are 0.1 to 0.5 nM and 1.01 to 5 nM.

(Values after US9499550B2 (BRISTOL-MYERS SQUIBB COMPANY, priority 2012, dated 2016).)
